These are literature values, as cited in patent US20100184765A1, “Protein Kinase Inhibitors and Methods for Using Thereof” (IRM LLC, priority 2007, published 2010).

As usually defined, the Kd is the free concentration of one partner at which half of the binding sites on the other are occupied at equilibrium, for simple one-to-one binding.

This data set concerns the target Flt-1 (Homo sapiens, UniProt P17948). To be noted: VEGF binding to Flt-1, literature report.

Chain of Flt-1 (P17948 27-1338, species assumed): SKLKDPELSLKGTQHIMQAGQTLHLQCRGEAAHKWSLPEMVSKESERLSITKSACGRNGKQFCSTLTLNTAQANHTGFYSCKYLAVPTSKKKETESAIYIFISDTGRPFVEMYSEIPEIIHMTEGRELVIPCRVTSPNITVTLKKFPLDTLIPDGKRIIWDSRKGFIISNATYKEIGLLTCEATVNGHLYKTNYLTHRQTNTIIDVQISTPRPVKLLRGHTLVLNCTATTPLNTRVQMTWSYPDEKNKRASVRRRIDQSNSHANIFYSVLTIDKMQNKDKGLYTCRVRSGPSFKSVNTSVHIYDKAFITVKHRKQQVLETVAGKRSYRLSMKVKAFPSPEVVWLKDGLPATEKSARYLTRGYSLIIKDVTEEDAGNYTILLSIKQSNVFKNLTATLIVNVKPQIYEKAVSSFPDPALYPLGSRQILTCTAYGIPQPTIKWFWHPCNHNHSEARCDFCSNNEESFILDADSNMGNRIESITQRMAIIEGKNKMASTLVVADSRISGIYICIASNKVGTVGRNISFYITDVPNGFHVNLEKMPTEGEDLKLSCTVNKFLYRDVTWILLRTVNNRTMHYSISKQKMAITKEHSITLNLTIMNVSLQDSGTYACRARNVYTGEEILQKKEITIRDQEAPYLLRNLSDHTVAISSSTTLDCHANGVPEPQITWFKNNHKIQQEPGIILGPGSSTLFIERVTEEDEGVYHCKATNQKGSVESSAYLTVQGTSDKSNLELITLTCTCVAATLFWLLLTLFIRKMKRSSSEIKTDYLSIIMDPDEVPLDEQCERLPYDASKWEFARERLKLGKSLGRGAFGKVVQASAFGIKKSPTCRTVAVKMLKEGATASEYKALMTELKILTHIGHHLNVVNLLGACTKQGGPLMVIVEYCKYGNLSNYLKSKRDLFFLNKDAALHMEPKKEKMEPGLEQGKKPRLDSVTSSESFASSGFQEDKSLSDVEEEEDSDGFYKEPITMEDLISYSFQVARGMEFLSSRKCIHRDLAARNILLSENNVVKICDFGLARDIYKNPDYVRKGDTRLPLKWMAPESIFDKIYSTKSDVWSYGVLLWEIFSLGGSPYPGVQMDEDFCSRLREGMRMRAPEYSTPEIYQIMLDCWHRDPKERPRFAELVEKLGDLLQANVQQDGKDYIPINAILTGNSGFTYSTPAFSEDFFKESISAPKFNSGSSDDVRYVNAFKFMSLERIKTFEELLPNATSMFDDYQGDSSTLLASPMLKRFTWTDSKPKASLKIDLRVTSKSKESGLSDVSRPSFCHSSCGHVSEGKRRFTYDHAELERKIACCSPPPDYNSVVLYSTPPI

Consider VEGF, for which the Kd was 0.02 nM.
